Measurements: patent US6632831B2, “Branched chain amino acid-dependent aminotransferase inhibitors and their use in the treatment of neurodegenerative diseases” (Pfizer Inc., priority 2001, dated 2003)
Where “and” joins values, the source holds several entries; their conditions need not be identical. Identical values can stand only once.

Tests used:
[1] = target: T1, human Branched Chain Amino Acid Aminotransferase cytosolic form (hBCATc) (Homo sapiens, UniProt P54687); assay: In vitro coupled enzyme assay, hBCATc; format: biochemical; details: 37° C., 25 mM phosphate buffer pH 7.8; coupled glutamate dehydrogenase assay; read-out: hBCATc I50
T1 construct: inferred from purification on a Ni-charged chelating column with imidazole elution; made in house; host or cells: E. coli BL21(DE3)
T1 sequence (P54687 1-386): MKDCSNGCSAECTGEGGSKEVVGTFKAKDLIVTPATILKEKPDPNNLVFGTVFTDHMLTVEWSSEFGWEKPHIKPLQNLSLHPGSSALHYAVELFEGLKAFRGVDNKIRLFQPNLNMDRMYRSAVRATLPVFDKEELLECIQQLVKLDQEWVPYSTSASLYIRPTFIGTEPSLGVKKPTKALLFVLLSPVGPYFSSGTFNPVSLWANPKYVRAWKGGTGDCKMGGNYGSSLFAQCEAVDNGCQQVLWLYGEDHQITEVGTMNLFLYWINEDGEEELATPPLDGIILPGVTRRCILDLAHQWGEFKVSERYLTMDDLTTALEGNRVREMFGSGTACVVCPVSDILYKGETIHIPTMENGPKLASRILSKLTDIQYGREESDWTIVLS
Protocol: In vitro enzyme assay—human Branched Chain Amino Acid Aminotransferase cytosolic form (hBCATc) and mitochondrial form (hBCATm) were assayed at 37° C. in 25 mM phosphate buffer pH 7.8. In addition, 2 mM DTT and 12.5 mM EDTA were added to the assay mixture. A coupling enzyme assay was used to monitor the production of glutamate. The formation of NADH from NAD+at […] was followed on a 96-well plate Molecular Devices plate reader. The following components were used in this coupled assay: 4 mM ADP, 1 mM NAD+, 750 μM L-Leucine, 500 μM (α-ketoglutarate, 10 μM pyridoxal phosphate, 1 unit glutamate dehydrogenase, and 1.25 μg of the appropriate BCAT enzyme. Inhibitions by compounds were assayed by adding various concentrations to this coupled assay procedure as a DMSO stock up to a 5% v/v DMSO/buffer ratio. Data is shown in Table 1.
Enzyme Preparation—humanBCATc was expressed in BL21(DE3) cells. A growing culture of cells was induced with 1 mM IPTG at room temperature overnight. These cells were harvested by centrifugation at 10,000 g for 20 minutes. The supernatant was discarded, and the cells were stored at −80° C. until needed. The protein was purified by the following method. The cell paste was resuspended in extraction buffer (0.1 M phosphate, pH 8.0, with 0.01 M Tris-HCL and 5 mM TCEP and then lysed on a French Press at 1000 psi. The lysate was centrifuged at 10,000 g for 15 minutes, and the pellet was discarded. The supernatant was loaded onto a Hitrap Chelating column previously charged with 0.1 M NiSO4 and washed with 3 to 4 column volumes of extraction buffer. The column was then washed with 0.01 Tris, pH 7.5, 10% glycerol, 150 mM NaCl, 5 mM TCEP for two column volumes. The column was then further washed with two column volumes of 0.1 M phosphate, pH 6.0, 0.01 M Tris, 10% glycerol and 750 mM NaCl. Finally, the column was washed with two column volumes of the same buffer plus 50 mM imidazole. The BCAT enzyme was then eluted with the same buffer but with 350 mM imidazole. The eluant was then dialyzed overnight against 10 mM phosphate buffer pH 8.0, 10% glycerol, and 5 mM TCEP. The dialyzed protein was then loaded onto a Q-sepharose column and eluted using a salt gradient. Active fractions were collected and further purified on a Superose-12 column to yield pure BCAT protein.

SMILES | IC50 [1] | melting point [°C]
O=C(O)/C=C1\SC(Nc2c(Cl)cccc2Cl)=NC1=O [Example 5, [2-(2,6-Dichloro-phenylamino)-4-oxo-4H-thiazol-5-ylidene]-acetic Acid] | 18.6 µM and 13.1 µM | > 230
CONC(=O)/C=C1\SC(Nc2c(Cl)cccc2Cl)=NC1=O (hydrate or solvate) [Example 10, [2-(2,6-Dichloro-phenylamino)-4-oxo-4H-thiazol-5-ylidene]-N-methoxy-acetamide] |  | 204.8 to 205.6
COC(=O)/C=C1\SC(Nc2cccc(Cl)c2Cl)=NC1=O [Example 13, [2-(2,3-Dichloro-phenylamino)-4-oxo-4H-thiazol-5-ylidene]-acetic Acid Methyl Ester] | 18.7 µM | 204 to 204.3
COC(=O)/C=C1\SC(Nc2c(Cl)cc(Cl)cc2Cl)=NC1=O [Example 14, [2-(2,4,6-Trichloro-phenylamino)-4-oxo-4H-thiazol-5-ylidene]-acetic Acid Methyl Ester] | 16.6 µM | 241.3 to 241.7
CCNC(=O)/C=C1\SC(Nc2c(Cl)cccc2Cl)=NC1=O (hydrate or solvate) [Example 7, [2-(2,6-Dichloro-phenylamino)-4-oxo-4H-thiazol-5-ylidene]-N-ethyl-acetamide] |  | > 250
CCCNC(=O)/C=C1\SC(Nc2c(Cl)cccc2Cl)=NC1=O (hydrate or solvate) [Example 8, [2-(2,6-Dichloro-phenylamino)-4-oxo-4H-thiazol-5-ylidene]-N-propyl-acetamide] |  | > 230
COC(=O)/C=C1\SC(Nc2ccccc2Cl)=NC1=O [Example 15, [2-(2-Chloro-phenylamino)-4-oxo-4H-thiazol-5-ylidene]-acetic Acid Methyl Ester] | 19.5 µM | 194 to 194.6
COC(=O)/C=C1\SC(Nc2cc(Cl)ccc2Cl)=NC1=O [Example 12, [2-(2,5-Dichloro-phenylamino)-4-oxo-4H-thiazol-5-ylidene]-acetic Acid Methyl Ester] | 27.6 µM | 198.8 to 199.4
COC(=O)/C=C1\SC(Nc2c(Cl)cccc2Cl)=NC1=O (hydrate or solvate) [Example 1, [2-(2,6-Dichloro-phenylamino)-4-oxo-4H-thiazol-5-ylidene]-acetic Acid Methyl Ester] |  | 189.1 to 189.7
CNC(=O)/C=C1\SC(Nc2c(Cl)cccc2Cl)=NC1=O (hydrate or solvate) [Example 6, [2-(2,6-Dichloro-phenylamino)-4-oxo-4H-thiazol-5-ylidene]-N-methyl-acetamide] |  | > 230
COC(=O)/C=C1\SC(Nc2ccc(Cl)cc2Cl)=NC1=O [Example 11, [2-(2,4-Dichloro-phenylamino)-4-oxo-4H-thiazol-5-ylidene]-acetic Acid Methyl Ester] | 30.1 µM | 211.6 to 212.3
CCOC(=O)/C=C1\SC(Nc2c(Cl)cccc2Cl)=NC1=O (hydrate or solvate) [Example 2, [2-(2,6-Dichloro-phenylamino)-4-oxo-4H-thiazol-5-ylidene]-acetic Acid Ethyl Ester] |  | 185 to 185.8
O=C(/C=C1\SC(Nc2c(Cl)cccc2Cl)=NC1=O)NCc1ccccc1 [Example 9, [2-(2,6-Dichloro-phenylamino)-4-oxo-4H-thiazol-5-ylidene]-N-benzyl-acetamide] | 33 µM and 24 µM | 204.8 to 205.6
CC(C)(C)OC(=O)/C=C1\SC(Nc2c(Cl)cccc2Cl)=NC1=O (hydrate or solvate) [Example 3, [2-(2,6-Dichloro-phenylamino)-4-oxo-4H-thiazol-5-ylidene]-acetic Acid Tert-butyl Ester] |  | > 230
COC(=O)/C=C1\SC(Nc2ccccc2C)=NC1=O (hydrate or solvate) [Example 4, [2-(2-Methyl-phenylamino)-4-oxo-4H-thiazol-5-ylidene]-acetic Acid Methyl Ester] |  | 200.7 to 201.2
O=C(/C=C1\SC(Nc2c(Cl)cccc2Cl)=NC1=O)NCC(O)CO (centres unmarked) [Example 28, 2-[2-(2,6-Dichloro-phenylamino)-4-oxo-4H-thiazol-5-ylidene]-N-(2,3-dihydroxy-propyl)-acetamide] | 66.9 µM | 
